# Results from patent US10028996B2, “Process for the synchronization of ovulation for timed breeding without heat detection” (priority 2003, dated 2018).
# Tests used:
# Format in all cases: in vivo, swine
# [1] = tested on: ovariectomized estrogen primed gilt model; assay: Dose response study of deslorelin in SAIB, LH release determined by RIA; conditions: single injection of 50 mcg in SAIB
# Method: A dose response study was performed using deslorelin in SAIB in an ovariectomized estrogen primed gilt model (Barb, et al. (1999) Proceed. Int'l. Symp. Control. Rel. Bioact. Mater., 26).
# mature postpartum sows = assay: Deslorelin injected intravulvar at estrus detection in mature postpartum sows, AI breeding; conditions: 50 mcg intravulvar at estrus detection
# Method: Sows were assigned randomly in blocks of two to either control or to be injected intravulvar with 50 mcg of deslorelin in SAIB at the time of estrus detection for sows first detected in estrus in the a.m. and 12 hours later for those first detected in estrus in the p.m. Treated animals were bred AI upon detected estrus and again 24 hours later if still in estrus. Controls received a saline injection on first detected estrus behavior estrus detection and were bred according to the farm's normal procedures.
# postpartum sows [2] = assay: Single timed deslorelin injection 96 hours post-weaning, single timed insemination without estrus detection; conditions: 50 mcg in SAIB 96 hours post-weaning, no estrus detection
# Method: Approximately 170 postpartum sows were randomly divided into two equal groups comprised of controls and treated. Following weaning, the controls were detected for estrus and bred following the normal standard operating procedures for the farms on which they resided. The treated sows received a 50 mcg dose of deslorelin in SAIB at 96 hours post-weaning and were bred with a single insemination 28+/−2 hours later with no regard to estrus detection. The sows were examined for pregnancy by ultrasound at 21 days and slaughtered around 28 days post breeding. The entire reproductive tract was removed and corpora lutea and embryos were counted.
# postpartum sows [3] = assay: Litter size after deslorelin treatment in postpartum sows at three farm sites; conditions: Tables 3 to 5; regardless of estrus detection
# Excerpt: Postpartum sows were randomly distributed into three different groups comprised of Controls, Treatment 1, and Treatment 2, with the exception of Site 3, which was divided into two groups, Control and Treatment 2. Control sows were detected for estrus following weaning, and bred following the normal standard operating procedures for the farms on which they resided. Treatment 1 sows were detected for estrus following weaning, and received a 50 mcg dose of deslorelin in the morning when standing and were bred by AI 4 hours later and again at 24+/−2 hours later. Treatment 2 sows received a 50 mcg dose of deslorelin in SAIB at 96 or 120 hours post-weaning and were bred with a single insemination 28+/−2 hours later with no regard to estrus detection.
smiles,measurement,setting,value
"CCNC(=O)[C@@H]1CCCN1C(=O)[C@H](CCCN=C(N)N)NC(=O)[C@H](CC(C)C)NC(=O)[C@@H](Cc1c[nH]c2ccccc12)NC(=O)[C@H](Cc1ccc(O)cc1)NC(=O)[C@H](CO)NC(=O)[C@H](Cc1c[nH]c2ccccc12)NC(=O)[C@H](Cc1cnc[nH]1)NC(=O)[C@@H]1CCC(=O)N1 [Deslorelin, deslorelin]",time at which LH returned to base level,[1],≤ 18 h
same,LH peak relative to normal value,[1]; compared to Hansel et al. (1973),about twice normal value
same,"difference in pregnancy rates, Control versus Treated",mature postpartum sows,no significant difference
same,Pregnancy Rate,postpartum sows [2],71%
same,"litter sizes, in words",postpartum sows [3],normal litter sizes
